Measurements as given in ChEMBL document CHEMBL4038279, “Design and characterization of opioid ligands based on cycle-in-macrocycle scaffold” (Bioorg Med Chem, 2017).
Where a SMILES comes first, the peptide text is derived from it. Bridges are numbered along the chain shown (N, C = ends). [ ]: non-standard residue; d: D form.

How the values were obtained:
Mu-type opioid receptor = Mu-type opioid receptor (Homo sapiens, UniProt P35372); test: Displacement of [3H]DAMGO from recombinant human mu opioid receptor expressed in CHO cell membranes after 120 mins by liquid scintillation counter analysis
[1] = target: Delta-type opioid receptor (Homo sapiens, UniProt P41143); test: Displacement of [3H]deltorphin-2 from recombinant human delta opioid receptor expressed in CHO cell membranes after 120 mins by liquid scintillation counter analysis
[2] = target: Kappa-type opioid receptor (Homo sapiens, UniProt P41145); test: Displacement of [3H]U-69593 from recombinant human kappa opioid receptor expressed in CHO cell membranes after 120 mins by liquid scintillation counter analysis
Chain of Kappa-type opioid receptor (P41145 whole entry): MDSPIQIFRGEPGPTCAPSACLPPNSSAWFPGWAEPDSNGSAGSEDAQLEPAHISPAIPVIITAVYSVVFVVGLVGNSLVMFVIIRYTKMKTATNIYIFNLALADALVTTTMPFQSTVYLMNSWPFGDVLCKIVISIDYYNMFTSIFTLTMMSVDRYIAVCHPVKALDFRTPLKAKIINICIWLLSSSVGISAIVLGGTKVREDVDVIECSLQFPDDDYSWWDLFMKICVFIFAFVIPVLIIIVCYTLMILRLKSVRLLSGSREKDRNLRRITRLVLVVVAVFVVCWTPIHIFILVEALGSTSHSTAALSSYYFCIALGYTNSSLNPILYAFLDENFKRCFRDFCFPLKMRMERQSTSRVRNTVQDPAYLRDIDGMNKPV

Chain of Mu-type opioid receptor (P35372 whole entry): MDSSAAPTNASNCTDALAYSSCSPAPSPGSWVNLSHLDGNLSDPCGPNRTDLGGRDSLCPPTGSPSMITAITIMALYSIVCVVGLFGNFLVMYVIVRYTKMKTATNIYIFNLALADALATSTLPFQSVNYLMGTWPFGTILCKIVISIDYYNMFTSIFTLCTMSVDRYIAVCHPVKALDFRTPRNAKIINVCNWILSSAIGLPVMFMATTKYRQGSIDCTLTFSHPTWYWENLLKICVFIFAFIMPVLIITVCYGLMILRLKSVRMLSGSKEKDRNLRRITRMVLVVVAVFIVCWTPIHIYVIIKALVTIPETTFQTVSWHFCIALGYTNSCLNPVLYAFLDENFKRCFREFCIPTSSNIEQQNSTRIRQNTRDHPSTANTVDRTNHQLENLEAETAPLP
Chain of Delta-type opioid receptor (P41143 whole entry): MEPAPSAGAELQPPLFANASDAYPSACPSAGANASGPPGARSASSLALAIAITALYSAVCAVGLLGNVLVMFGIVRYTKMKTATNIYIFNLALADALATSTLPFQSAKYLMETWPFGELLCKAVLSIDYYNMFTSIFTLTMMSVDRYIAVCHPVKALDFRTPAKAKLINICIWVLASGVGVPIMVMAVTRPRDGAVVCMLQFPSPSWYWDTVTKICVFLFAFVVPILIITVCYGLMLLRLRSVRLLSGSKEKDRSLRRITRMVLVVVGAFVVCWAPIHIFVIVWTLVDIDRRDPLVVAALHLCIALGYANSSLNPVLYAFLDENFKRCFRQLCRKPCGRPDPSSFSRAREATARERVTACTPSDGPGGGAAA

| Structure (SMILES) | Ki (Mu-type opioid receptor) | Ki [1] | Ki [2] |
| --- | --- | --- | --- |
| NC(=O)[C@@H]1CC(=O)NCCCC[C@@H](NC(=O)[C@@H](N)Cc2ccc(O)cc2)C(=O)N[C@@H](Cc2ccccc2)C(=O)N2CCCC[C@H]2C(=O)N1 | 3.16 nM | 49.6 nM | 6720 nM |
| NC(=O)[C@@H]1CC(=O)NCCCC[C@@H](NC(=O)[C@@H](N)Cc2ccc(O)cc2)C(=O)N[C@@H](Cc2ccccc2)C(=O)N2CCC[C@H]2C(=O)N1 | 0.46 nM | 85.5 nM | 884 nM |
| NC(=O)[C@@H]1CC(=O)NCCCC[C@@H](NC(=O)[C@@H](N)Cc2ccc(O)cc2)C(=O)N[C@@H](Cc2ccccc2)C(=O)N[C@@H](Cc2ccccc2)C(=O)N1 (H-Y[dK]FFD-NH2; lactam 2-5) | 0.56 nM | 279 nM | 2.36 nM |
| NC(=O)[C@@H]1CC(=O)NCCCC[C@@H](NC(=O)[C@@H](N)Cc2ccc(O)cc2)C(=O)N[C@@H](Cc2ccccc2)C(=O)N2CCC(CC2)C(=O)N1 | 1.15 nM | 76.7 nM | 5460 nM |
| NC(=O)[C@@H]1CC(=O)NCCCC[C@@H](NC(=O)[C@@H](N)Cc2ccc(O)cc2)C(=O)N[C@@H](Cc2ccccc2)C(=O)N2CCC[C@H](C2)C(=O)N1 | 0.9 nM | 67 nM | 4620 nM |
